Common to all, as to format: biochemical
For one assay, the target named is T1, Caspase-1 (Homo sapiens, UniProt P29466).
T1 construct: purchased Enzo Biosciences
T1 sequence (P29466 120-297 limits assumed): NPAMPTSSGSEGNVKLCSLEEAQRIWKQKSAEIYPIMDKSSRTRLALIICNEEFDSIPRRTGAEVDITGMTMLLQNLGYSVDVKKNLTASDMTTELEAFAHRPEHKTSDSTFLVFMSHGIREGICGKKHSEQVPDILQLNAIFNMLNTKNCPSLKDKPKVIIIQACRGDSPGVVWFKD
T1 sequence (P29466 317-404 limits assumed): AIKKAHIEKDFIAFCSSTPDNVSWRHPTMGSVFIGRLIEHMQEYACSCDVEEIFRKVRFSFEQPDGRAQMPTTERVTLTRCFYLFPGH
As to the kind of experiment: Caspase-1 enzyme inhibition assay (Ac-YVAD-pNA substrate), IC50. The protocol:
(§1) Human caspases were purchased from Enzo Biosciences and used according to the manufacturer's instructions. An exemplary caspase assay, for Caspase-1, is provided below:
Caspase-1 was diluted to 10 U/μl in assay buffer consisting of 50 mM HEPES, pH 7.4, 100 mM NaCl, 0.1% CHAPS, 1 mM EDTA, 10% glycerol and 10 mM DTT.
45 μl of assay buffer was added into ½ volume microtiter plate. The plate was allowed to equilibrate to assay temperature. 5 μl of Caspase-1 (10 U/μl) was added to each appropriate well. Two 2 blank wells containing assay buffer alone without Caspase-1 were included on the plate.
The reaction was started by the addition of 50 μl Ac-YVAD-pNA substrate, for a final substrate concentration of 200 μM. The reaction was continuously monitored at 405 nm. The data was graphed as OD405 nm vs time, and the slope was determined over the linear portion of the curve. The rates in OD/min were converted to substrate/min using an extinction coefficient for p-nitroaniline of 10,500M-1 cm-1, and were adjusted for pathlength of sample. […]

For another assay, the target named is T2, Caspase-3 (Homo sapiens, UniProt P42574).
T2 construct: purchased Enzo Biosciences
T2 sequence (P42574 29-175 limits assumed): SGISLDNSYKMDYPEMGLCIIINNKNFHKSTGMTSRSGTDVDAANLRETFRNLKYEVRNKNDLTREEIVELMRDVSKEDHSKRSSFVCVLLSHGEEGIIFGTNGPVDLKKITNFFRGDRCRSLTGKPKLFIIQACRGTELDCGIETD
T2 sequence (P42574 176-277 limits assumed): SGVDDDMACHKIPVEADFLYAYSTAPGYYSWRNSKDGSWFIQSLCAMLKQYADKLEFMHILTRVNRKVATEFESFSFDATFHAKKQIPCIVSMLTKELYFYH
In words: Caspase-3 enzymatic inhibition assay, IC50. The settings on record: read-out: Caspase 3 enzyme inhibition IC50. How it is done:
as §1
(§2) Enzymatic assays were conducted for Caspase-3, 6 and 7 activity according to the manufacture's instructions.

The target in the next assay is T3, Caspase 6 (Homo sapiens, UniProt P55212).
T3 construct: purchased Enzo Biosciences
T3 sequence (P55212 24-179 limits assumed): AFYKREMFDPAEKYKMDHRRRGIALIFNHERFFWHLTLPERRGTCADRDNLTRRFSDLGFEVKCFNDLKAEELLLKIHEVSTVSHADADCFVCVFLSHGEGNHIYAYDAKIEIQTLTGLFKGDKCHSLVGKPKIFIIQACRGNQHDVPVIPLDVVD
T3 sequence (P55212 194-293 limits assumed): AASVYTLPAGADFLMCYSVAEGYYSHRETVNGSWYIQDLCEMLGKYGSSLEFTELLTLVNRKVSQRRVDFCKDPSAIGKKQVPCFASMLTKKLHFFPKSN
As to the kind of experiment: Caspase 6 enzymatic inhibition assay, IC50. The settings on record: read-out: Caspase 6 enzyme inhibition IC50. The protocol: as §1, §2

In a further assay the target is T4, Caspase 7 (Homo sapiens, UniProt P55210).
T4 construct: purchased Enzo Biosciences
T4 sequence (P55210 24-198 limits assumed): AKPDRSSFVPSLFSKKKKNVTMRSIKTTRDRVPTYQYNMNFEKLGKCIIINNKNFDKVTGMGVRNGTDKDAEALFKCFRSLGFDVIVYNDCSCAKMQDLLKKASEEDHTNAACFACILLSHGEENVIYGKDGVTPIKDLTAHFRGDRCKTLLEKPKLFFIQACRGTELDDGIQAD
T4 sequence (P55210 207-303 limits assumed): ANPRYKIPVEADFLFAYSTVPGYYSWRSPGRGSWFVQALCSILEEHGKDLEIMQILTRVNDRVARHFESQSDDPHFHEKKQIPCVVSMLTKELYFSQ
In words: Caspase 7 enzymatic inhibition assay, IC50. The settings on record: read-out: Caspase 7 enzyme inhibition IC50. How it is done:
as §1, §2

IC50 data for 16 compounds are collected here from US11597703B2, “Caspase inhibitors and methods of use thereof” (Histogen Inc., priority 2019, dated 2023).

Consider `C[C@H](NC(=O)C(=O)Nc1cccc(-c2nnn[nH]2)c1)C(=O)N[C@@H](CCC(=O)O)C(=O)COc1c(F)c(F)cc(F)c1F` [Example 31, (S)-4-((S)-2-(2-((3-(1H-tetrazol-5-yl)phenyl)amino)-2-oxoacetamido)propanamido)-5-oxo-6-(2,3,5,6-tetrafluorophenoxy)hexanoic acid], for which the IC50 is at most 0.01 µM on Caspase-1, at least 1 µM at Caspase-3, at least 1 µM at Caspase 6 and at least 1 µM at Caspase 7.
As to `C[C@H](NC(=O)C(=O)Nc1ccc(OC(F)(F)F)cc1)C(=O)N[C@@H](CCC(=O)O)C(=O)COc1c(F)c(F)cc(F)c1F` [Example 34, (S)-5-oxo-4-((S)-2-(2-oxo-2-((4-(trifluoromethoxy)phenyl)amino)acetamido)propanamido)-6-(2,3,5,6-tetrafluorophenoxy) hexanoic acid], the IC50 is at most 0.01 µM on Caspase-1, at least 1 µM at Caspase-3, at least 1 µM at Caspase 6 and at least 1 µM on Caspase 7.
Consider `C[C@H](NC(=O)C(=O)Nc1ccc(Cl)cn1)C(=O)N[C@@H](CCC(=O)O)C(=O)COc1c(F)c(F)cc(F)c1F` [Example 29, (S)-4-((S)-2-(2-((5-chloropyridin-2-yl)amino)-2-oxoacetamido)propanamido)-5-oxo-6-(2,3,5,6-tetrafluorophenoxy)hexanoic acid], for which the IC50 against Caspase-1 was at most 0.01 µM; on Caspase-3, at least 1 µM; on Caspase 6, at least 1 µM; on Caspase 7, at least 1 µM.
For the compound `C[C@H](NC(=O)C(=O)Nc1c(F)cccc1F)C(=O)N[C@H](CCC(=O)O)C(=O)COc1c(F)c(F)cc(F)c1F` [Example 38, (R)-4-((S)-2-(2-((2,6-difluorophenyl)amino)-2-oxoacetamido)propanamido)-5-oxo-6-(2,3,5,6-tetrafluorophenoxy)hexanoic acid], the IC50 on Caspase-1 was at most 0.01 µM; at Caspase-3, at least 1 µM; on Caspase 6, at least 1 µM; on Caspase 7, at least 1 µM.
Take `C[C@H](NC(=O)C(=O)Nc1ccc(C(F)(F)F)cc1)C(=O)N[C@@H](CCC(=O)O)C(=O)COc1c(F)c(F)cc(F)c1F` [Example 27, (S)-5-oxo-4-((S)-2-(2-oxo-2-((4-(trifluoromethyl)phenyl)amino)acetamido)propanamido)-6-(2,3,5,6-tetrafluorophenoxy) hexanoic acid]: the half-maximal inhibitory concentration (IC50) against Caspase-1 is at most 0.01 µM; at Caspase-3, at least 1 µM; on Caspase 6, at least 1 µM; at Caspase 7, at least 1 µM.
Turning to `C[C@H](NC(=O)C(=O)Nc1c(F)cccc1F)C(=O)N[C@@H](CCC(=O)OCc1ccccc1)C(=O)COc1c(F)c(F)cc(F)c1F` [Example 28, benzyl(S)-4-((S)-2-(2-((2,6-difluorophenyl)amino)-2-oxoacetamido)propanamido)-5-oxo-6-(2,3,5,6-tetrafluorophenoxy)hexanoate], the IC50 on Caspase-1 was at most 0.01 µM; on Caspase-3 it was at least 1 µM; on Caspase 6, at least 1 µM; on Caspase 7 it was at least 1 µM.
Take `C[C@H](NC(=O)C(=O)Nc1ncccn1)C(=O)N[C@@H](CCC(=O)O)C(=O)COc1c(F)c(F)cc(F)c1F` [Example 42, (S)-5-oxo-4-((S)-2-(2-oxo-2-(pyrimidin-2-ylamino)acetamido)propanamido)-6-(2,3,5,6-tetrafluorophenoxy)hexanoic acid]: the IC50 on Caspase-1 is at most 0.01 µM; at Caspase-3, at least 1 µM; at Caspase 6, at least 1 µM; on Caspase 7, at least 1 µM.
Regarding `C[C@H](NC(=O)C(=O)Nc1cnc2ccccc2c1)C(=O)N[C@@H](CCC(=O)O)C(=O)COc1c(F)c(F)cc(F)c1F` [Example 35, (S)-5-oxo-4-((S)-2-(2-oxo-2-(quinolin-3-ylamino)acetamido)propanamido)-6-(2,3,5,6-tetrafluorophenoxy)hexanoic acid], the IC50 on Caspase-1 was at most 0.01 µM; on Caspase-3, at least 1 µM; on Caspase 6, at least 1 µM; at Caspase 7, at least 1 µM.
`C[C@H](NC(=O)C(=O)Nc1ccncc1)C(=O)N[C@@H](CCC(=O)O)C(=O)COc1c(F)c(F)cc(F)c1F` [Example 37, (S)-5-oxo-4-((S)-2-(2-oxo-2-(pyridin-4-ylamino)acetamido)propanamido)-6-(2,3,5,6-tetrafluorophenoxy)hexanoic acid]: the IC50 is at most 0.01 µM against Caspase-1, at least 1 µM at Caspase-3, at least 1 µM at Caspase 6 and at least 1 µM at Caspase 7.
Regarding `COc1ccccc1NC(=O)C(=O)N[C@@H](C)C(=O)N[C@@H](CCC(=O)O)C(=O)COc1c(F)c(F)cc(F)c1F` [Example 22, (S)-4-((S)-2-(2-((2-methyoxyphenyl)amino)-2-oxoacetamido)propanamido)-5-oxo-6-(2,3,5,6-tetrafluorophenoxy)hexanoic acid], the IC50 at Caspase-1 was at most 0.01 µM; on Caspase-3 it was at least 1 µM; on Caspase 6, at least 1 µM; at Caspase 7, at least 1 µM.
As for `Cc1ccccc1NC(=O)C(=O)N[C@@H](C)C(=O)N[C@@H](CCC(=O)O)C(=O)COc1c(F)c(F)cc(F)c1F` [Example 21, (S)-4-((S)-2-(2-((2-methylphenyl)amino)-2-oxoacetamido)propanamido)-5-oxo-6-(2,3,5,6-tetrafluorophenoxy)hexanoic acid], the IC50 against Caspase-1 is at most 0.01 µM; on Caspase-3 it was at least 1 µM; on Caspase 6, at least 1 µM; on Caspase 7, at least 1 µM.
`COc1cccc(NC(=O)C(=O)N[C@@H](C)C(=O)N[C@@H](CCC(=O)O)C(=O)COc2c(F)c(F)cc(F)c2F)c1` [Example 23, (S)-4-((S)-2-(2-((3-methyoxyphenyl)amino)-2-oxoacetamido)propanamido)-5-oxo-6-(2,3,5,6-tetrafluorophenoxy)hexanoic acid]: the IC50 against Caspase-1 was at most 0.01 µM; at Caspase-3, at least 1 µM; on Caspase 6, at least 1 µM; on Caspase 7, at least 1 µM.
As for `C[C@H](NC(=O)C(=O)Nc1cccc2cccnc12)C(=O)N[C@@H](CCC(=O)O)C(=O)COc1c(F)c(F)cc(F)c1F` [Example 36, (S)-5-oxo-4-((S)-2-(2-oxo-2-(quinolin-8-ylamino)acetamido)propanamido)-6-(2,3,5,6-tetrafluorophenoxy)hexanoic acid], the IC50 at Caspase-1 was at most 0.01 µM; on Caspase-3 it was at least 1 µM; at Caspase 6 it was at least 1 µM; at Caspase 7, at least 1 µM.
On to `Cc1ccc(NC(=O)C(=O)N[C@@H](C)C(=O)N[C@@H](CCC(=O)O)C(=O)COc2c(F)c(F)cc(F)c2F)nc1` [Example 25], for which the half-inhibitory concentration (IC50) is at most 0.01 µM at Caspase-1, at least 1 µM on Caspase-3, at least 1 µM on Caspase 6 and at least 1 µM on Caspase 7.
For `C[C@H](NC(=O)C(=O)Nc1c(F)cccc1F)C(=O)N[C@@H](CCC(=O)O)C(=O)COc1cc(C(F)(F)F)nc(C(F)(F)F)n1` [Example 33, (S)-6-((2,6-bis(trifluoromethyl)pyrimidin-4-yl)oxy)-4-((S)-2-(2-((2,6-difluorophenyl)amino)-2-oxoacetamido)propanamido)-5-oxohexanoic acid], the 50% inhibitory concentration (IC50) is at most 0.01 µM against Caspase-1, at least 1 µM at Caspase-3, at least 1 µM on Caspase 6 and at least 1 µM on Caspase 7.
On to `C[C@H](NC(=O)C(=O)Nc1cccc(C(F)(F)F)c1)C(=O)N[C@@H](CCC(=O)O)C(=O)COc1c(F)c(F)cc(F)c1F` [Example 26, (S)-5-oxo-4-((S)-2-(2-oxo-2-((3-(trifluoromethyl)phenyl)amino)acetamido)propanamido)-6-(2,3,5,6-tetrafluorophenoxy) hexanoic acid], for which the IC50 at Caspase-1 is at most 0.01 µM; on Caspase-3, at least 1 µM; at Caspase 6, at least 1 µM; on Caspase 7, at least 1 µM.

One may read the IC50 as the midpoint of a concentration-inhibition curve.
